Measurements taken from patent US11299473B2, “Benzimidazole and indole compounds and uses thereof” (Incyte Corporation, priority 2018, dated 2022).

Molecular target: active HPK1 (SignalChem M23-11G) (Homo sapiens (Human), UniProt Q92918)
Assay: HPK1 Kinase Binding Assay
Details: LanthaScreen tracer 222 / Eu-Anti GST antibody, one hour incubation at 25° C.
Method: A stock solution of 1 mM test compound was prepared in DMSO. The compound plate was prepared by 3-fold and 11-point serial dilutions. 0.1 μL of the compound in DMSO was transferred from the compound plate to the white 384 well polystyrene plates. The assay buffer contained 50 mM HEPES, pH 7.5, 0.01% Tween-20, 5 mM MgCl2, 0.01% BSA, and 5 mM DTT. 5 μL of 4 nM active HPK1 (SignalChem M23-11G) prepared in the buffer was added to the plate. The enzyme concentration given was based on the given stock concentration reported by the vender. 5 μl of 18 nM tracer 222 (ThermoFisher PV6121) and 4 nM LanthaScreen Eu-Anti GST antibody (ThermoFisher PV5595) were added. After one hour incubation at 25° C., the plates were read on a PHERAstar FS plate reader (BMG Labtech). Ki values were determined.

Sequence of active HPK1 (SignalChem M23-11G) (Q92918 1-346 limits assumed): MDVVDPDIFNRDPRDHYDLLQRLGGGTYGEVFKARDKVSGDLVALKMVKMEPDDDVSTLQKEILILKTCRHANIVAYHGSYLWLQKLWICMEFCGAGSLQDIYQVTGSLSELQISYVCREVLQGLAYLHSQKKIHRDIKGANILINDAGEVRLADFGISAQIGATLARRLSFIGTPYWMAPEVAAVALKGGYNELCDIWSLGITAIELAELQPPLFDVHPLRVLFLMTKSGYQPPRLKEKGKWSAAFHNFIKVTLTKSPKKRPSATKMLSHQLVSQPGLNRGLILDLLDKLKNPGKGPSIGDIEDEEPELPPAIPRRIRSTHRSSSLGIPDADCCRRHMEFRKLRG

| Compound | Ki [nM] |
| --- | --- |
| COc1cccc(F)c1-c1nccc(C(=O)Nc2ccc3c(nc(-c4ncccc4F)n3C)c2N2C[C@H](N)C[C@H]2CO)n1 [Example 1, N-(4-((2S,4R)-4-Amino-2-(hydroxymethyl)pyrrolidin-1-yl)-2-(3-fluoropyridin-2-yl)-1-methyl-1H-benzo[d]imidazol-5-yl)-2-(2-fluoro-6-methoxyphenyl)pyrimidine-4-carboxamide] | ≤ 100 |
| COc1cccc(F)c1-c1nccc(C(=O)Nc2ccc3c(nc(-c4ccncc4F)n3C)c2N2C[C@@H]3C[C@H]2CO3)n1 [Example 11, N-(4-((1S,4S)-2-Oxa-5-azabicyclo[2.2.1]heptan-5-yl)-2-(3-fluoropyridin-4-yl)-1-methyl-1H-benzo[d]imidazol-5-yl)-2-(2-fluoro-6-methoxyphenyl)pyrimidine-4-carboxamide] | ≤ 100 |
| COc1cccc(F)c1-c1nccc(C(=O)Nc2ccc3c(ccn3CCN3CCOCC3)c2N2C[C@@H]3C[C@H]2CN3)n1 [Example 43, N-(4-((1S,4S)-2,5-Diazabicyclo[2.2.1]heptan-2-yl)-1-(2-morpholinoethyl)-1H-indol-5-yl)-2-(2-fluoro-6-methoxyphenyl)pyrimidine-4-carboxamide] | ≤ 100 |
| Cc1nc2c(N3CCC[C@H]3CN)c(NC(=O)c3ccnc(-c4c(F)cccc4F)n3)ccc2n1C [Example 32, (S)—N-(4-(2-(Aminomethyl)pyrrolidin-1-yl)-1,2-dimethyl-1H-benzo[d]imidazol-5-yl)-2-(2,6-difluorophenyl)pyrimidine-4-carboxamide] | ≤ 100 |
| CN(c1c(NC(=O)c2ccnc(-c3c(F)cccc3F)n2)ccc2c1nc(-c1c(F)cncc1F)n2C)[C@@H]1CCCNC1 [Example 6, (R)-2-(2,6-Difluorophenyl)-N-(2-(3,5-difluoropyridin-4-yl)-1-methyl-4-(methyl(piperidin-3-yl)amino)-1H-benzo[d]imidazol-5-yl)pyrimidine-4-carboxamide] | ≤ 100 |
| COc1cccc(F)c1-c1nccc(C(=O)Nc2ccc3c(ccn3-c3ccnn3C)c2N2C[C@@H](N)C[C@H]2CO)n1 [Example 46, N-(4-((2S,4S)-4-Amino-2-(hydroxymethyl)pyrrolidin-1-yl)-1-(1-methyl-1H-pyrazol-5-yl)-1H-indol-5-yl)-2-(2-fluoro-6-methoxyphenyl)pyrimidine-4-carboxamide] | ≤ 100 |
| COc1cccc(F)c1-c1nccc(C(=O)Nc2ccc3c(ccn3CC3CCCCO3)c2N2C[C@@H]3C[C@H]2CN3)n1 (stereo partly drawn) [Example 41, N-(4-((1S,4S)-2,5-Diazabicyclo[2.2.1]heptan-2-yl)-1-((tetrahydro-2H-pyran-2-yl)methyl)-1H-indol-5-yl)-2-(2-fluoro-6-methoxyphenyl)pyrimidine-4-carboxamide] | ≤ 100 |
| COC[C@@H](C)n1c(C)nc2c(N3CCC[C@H]3CN)c(NC(=O)c3ccnc(-c4c(F)cccc4OC)n3)ccc21 [Example 22, N-(4-((S)-2-(Aminomethyl)pyrrolidin-1-yl)-1-((R)-1-methoxypropan-2-yl)-2-methyl-1H-benzo[d]imidazol-5-yl)-2-(2-fluoro-6-methoxyphenyl)pyrimidine-4-carboxamide] | ≤ 100 |
| COc1cccc(F)c1-c1nccc(C(=O)Nc2ccc3c(ncn3C)c2N2CCC[C@H]2CN)n1 [Example 28, (S)—N-(4-(2-(Aminomethyl)pyrrolidin-1-yl)-1-methyl-1H-benzo[d]imidazol-5-yl)-2-(2-fluoro-6-methoxyphenyl)pyrimidine-4-carboxamide] | ≤ 100 |
| Cn1c(-c2ccncc2F)nc2c(N3CCNC[C@@H]3CO)c(NC(=O)c3ccnc(-c4c(F)cccc4F)n3)ccc21 [Example 9, (R)-2-(2,6-Difluorophenyl)-N-(2-(3-fluoropyridin-4-yl)-4-(2-(hydroxymethyl)piperazin-1-yl)-1-methyl-1H-benzo[d]imidazol-5-yl)pyrimidine-4-carboxamide] | ≤ 100 |
| COc1ccc(-n2ccc3c(N4C[C@@H](N)C[C@H]4CO)c(NC(=O)c4ccnc(-c5c(F)cccc5OC)n4)ccc32)c(F)c1 [Example 45, N-(4-((2S,4S)-4-Amino-2-(hydroxymethyl)pyrrolidin-1-yl)-1-(2-fluoro-4-methoxyphenyl)-1H-indol-5-yl)-2-(2-fluoro-6-methoxyphenyl)pyrimidine-4-carboxamide] | ≤ 100 |
| Cn1c(-c2ccncc2F)nc2c(N3C[C@H](N)C[C@H]3CO)c(NC(=O)c3ccnc(-c4c(F)cccc4F)n3)ccc21 [Example 7, N-(4-((2S,4R)-4-Amino-2-(hydroxymethyl)pyrrolidin-1-yl)-2-(3-fluoropyridin-4-yl)-1-methyl-1H-benzo[d]imidazol-5-yl)-2-(2,6-difluorophenyl)pyrimidine-4-carboxamide] | ≤ 100 |
| COc1cccc(F)c1-c1nccc(C(=O)Nc2ccc3c(ccn3Cc3cnc(C)s3)c2N2C[C@@H]3C[C@H]2CN3)n1 [Example 42, N-(4-((1S,4S)-2,5-Diazabicyclo[2.2.1]heptan-2-yl)-1-((2-methylthiazol-5-yl)methyl)-1H-indol-5-yl)-2-(2-fluoro-6-methoxyphenyl)pyrimidine-4-carboxamide] | ≤ 100 |
| COc1cccc(F)c1-c1nccc(C(=O)Nc2ccc3c(ccn3-c3cccc(F)c3C#N)c2N2C[C@@H](N)C[C@H]2CO)n1 [Example 47, N-(4-((2S,4S)-4-Amino-2-(hydroxymethyl)pyrrolidin-1-yl)-1-(2-cyano-3-fluorophenyl)-1H-indol-5-yl)-2-(2-fluoro-6-methoxyphenyl)pyrimidine-4-carboxamide] | ≤ 100 |
| COc1cccc(F)c1-c1nccc(C(=O)Nc2ccc3c(nc(C)n3C)c2-c2ccccc2N)n1 [Example 31, N-(4-(2-Aminophenyl)-1,2-dimethyl-1H-benzo[d]imidazol-5-yl)-2-(2-fluoro-6-methoxyphenyl)pyrimidine-4-carboxamide] | ≤ 100 |
| COc1cc(-n2ccc3c(N4C[C@@H]5C[C@H]4CN5)c(NC(=O)c4ccnc(-c5c(F)cccc5OC)n4)ccc32)ccn1 [Example 44, N-(4-((1S,4S)-2,5-Diazabicyclo[2.2.1]heptan-2-yl)-1-(2-methoxypyridin-4-yl)-1H-indol-5-yl)-2-(2-fluoro-6-methoxyphenyl)pyrimidine-4-carboxamide] | ≤ 100 |
| COc1cccc(F)c1-c1nccc(C(=O)Nc2ccc3c(nc(C)n3C)c2N2CCC[C@@H]2CO)n1 [Example 14, (R)-2-(2-Fluoro-6-methoxyphenyl)-N-(4-(2-(hydroxymethyl)pyrrolidin-1-yl)-1,2-dimethyl-1H-benzo[d]imidazol-5-yl)pyrimidine-4-carboxamide] | ≤ 100 |
| Cn1c(-c2ccccc2C#N)nc2c(N3C[C@H](N)C[C@H]3CO)c(NC(=O)c3ccnc(-c4c(F)cccc4F)n3)ccc21 [Example 4, N-(4-((2S,4R)-4-Amino-2-(hydroxymethyl)pyrrolidin-1-yl)-2-(2-cyanophenyl)-1-methyl-1H-benzo[d]imidazol-5-yl)-2-(2,6-difluorophenyl)pyrimidine-4-carboxamide] | ≤ 100 |
| COc1cccc(F)c1-c1nccc(C(=O)Nc2ccc3c(ccn3Cc3ccncc3)c2N2C[C@@H]3C[C@H]2CN3)n1 [Example 39, N-(4-((1S,4S)-2,5-Diazabicyclo[2.2.1]heptan-2-yl)-1-(pyridin-4-ylmethyl)-1H-indol-5-yl)-2-(2-fluoro-6-methoxyphenyl)pyrimidine-4-carboxamide] | ≤ 100 |
| COc1cccc(F)c1-c1nccc(C(=O)Nc2ccc3c(nc(C(C)C)n3C)c2N2C[C@@H]3C[C@H]2CN3)n1 [Example 17, N-(4-((1S,4S)-2,5-Diazabicyclo[2.2.1]heptan-2-yl)-2-isopropyl-1-methyl-1H-benzo[d]imidazol-5-yl)-2-(2-fluoro-6-methoxyphenyl)pyrimidine-4-carboxamide] | ≤ 100 |
| COc1cccc(F)c1-c1nccc(C(=O)Nc2ccc3c(nc(-c4ccncc4F)n3C)c2N2CCOC[C@@H]2CN)n1 [Example 8, (S)—N-(4-(3-(Aminomethyl)morpholino)-2-(3-fluoropyridin-4-yl)-1-methyl-1H-benzo[d]imidazol-5-yl)-2-(2-fluoro-6-methoxyphenyl)pyrimidine-4-carboxamide] | ≤ 100 |
| COc1cccc(F)c1-c1nccc(C(=O)Nc2ccc3c(nc(C)n3C)c2N2C[C@H](N)C[C@H]2CO)n1 [Example 15, N-(4-((2S,4R)-4-Amino-2-(hydroxymethyl)pyrrolidin-1-yl)-1,2-dimethyl-1H-benzo[d]imidazol-5-yl)-2-(2-fluoro-6-methoxyphenyl)pyrimidine-4-carboxamide] | ≤ 100 |
| COCCn1c(C)nc2c(N3CCC[C@H]3CN)c(NC(=O)c3ccnc(-c4c(F)cccc4OC)n3)ccc21 [Example 21, (S)—N-(4-(2-(Aminomethyl)pyrrolidin-1-yl)-1-(2-methoxyethyl)-2-methyl-1H-benzo[d]imidazol-5-yl)-2-(2-fluoro-6-methoxyphenyl)pyrimidine-4-carboxamide] | ≤ 100 |
| COc1cccc(F)c1-c1nc(C(=O)Nc2ccc3c(nc(C)n3C)c2N2CCC[C@H]2CN)ccc1F [Example 34, N-(4-((S)-2-(Aminomethyl)pyrrolidin-1-yl)-1,2-dimethyl-1H-benzo[d]imidazol-5-yl)-5-fluoro-6-(2-fluoro-6-methoxyphenyl)picolinamide] | ≤ 100 |
| COc1cccc(F)c1-c1nccc(C(=O)Nc2ccc3c(nc(C)n3C)c2N2CCC[C@H]2CN)n1 [Example 12, (S)—N-(4-(2-(Aminomethyl)pyrrolidin-1-yl)-1,2-dimethyl-1H-benzo[d]imidazol-5-yl)-2-(2-fluoro-6-methoxyphenyl)pyrimidine-4-carboxamide] | ≤ 100 |
